Source: ChEMBL document CHEMBL4371065, “Design and synthesis of biaryloxazolidinone derivatives containing a rhodanine or thiohydantoin moiety as novel antibacterial agents against Gram-positive bacteria” (Bioorg Med Chem Lett, 2019)
pIC50: −log10 of the molar value. In brackets after ≈: the same amount, converted by molar mass.

Key:
Staphylococcus aureus [1] = experiment: Antibacterial activity against Staphylococcus aureus ATCC 29213 by broth liquid microdilution method; assay type: functional
Staphylococcus aureus [2] = experiment: Antibacterial activity against methicillin-resistant Staphylococcus aureus by broth liquid microdilution method; assay type: functional
Staphylococcus aureus [3] = experiment: Antibacterial activity against methicillin-sensitive Staphylococcus aureus by broth liquid microdilution method; assay type: functional
Enterococcus faecalis [4] = experiment: Antibacterial activity against linezolid-resistant Enterococcus faecalis by broth liquid microdilution method; assay type: functional
Enterococcus faecium [5] = experiment: Antibacterial activity against vancomycin-resistant Enterococcus faecium by broth liquid microdilution method; assay type: functional
Staphylococcus aureus [6] = experiment: Antibacterial activity against clinical isolates of methicillin-resistant Staphylococcus aureus by broth liquid microdilution method; assay type: functional
Staphylococcus aureus [7] = experiment: Antibacterial activity against clinical isolates of methicillin-sensitive Staphylococcus aureus by broth liquid microdilution method; assay type: functional
Enterococcus faecalis [8] = experiment: Antibacterial activity against clinical isolates of linezolid-resistant Enterococcus faecalis by broth liquid microdilution method; assay type: functional
Enterococcus faecium [9] = experiment: Antibacterial activity against clinical isolates of vancomycin-resistant Enterococcus faecium by broth liquid microdilution method; assay type: functional
Enterococcus faecalis [10] = experiment: Potency index, ratio of linezolid MIC to compound MIC for clinical isolates of linezolid-resistant Enterococcus faecalis; assay type: functional
HepG2 = experiment: Cytotoxicity against human HepG2 cells after 48 hrs by MTT assay; assay type: cell-based; conditions: HepG2, 48 h
MAO-A = molecular target: T1, MAO-A (Homo sapiens, UniProt P21397); experiment: Inhibition of recombinant human full length N-terminal FLAG-tagged MAO-A expressed in sf9 cells at 30 uM preincubated for 15 mins followed by substrate addition and measured after 60 mins by luminescence assay relative to control
T1 sequence (P21397 whole entry): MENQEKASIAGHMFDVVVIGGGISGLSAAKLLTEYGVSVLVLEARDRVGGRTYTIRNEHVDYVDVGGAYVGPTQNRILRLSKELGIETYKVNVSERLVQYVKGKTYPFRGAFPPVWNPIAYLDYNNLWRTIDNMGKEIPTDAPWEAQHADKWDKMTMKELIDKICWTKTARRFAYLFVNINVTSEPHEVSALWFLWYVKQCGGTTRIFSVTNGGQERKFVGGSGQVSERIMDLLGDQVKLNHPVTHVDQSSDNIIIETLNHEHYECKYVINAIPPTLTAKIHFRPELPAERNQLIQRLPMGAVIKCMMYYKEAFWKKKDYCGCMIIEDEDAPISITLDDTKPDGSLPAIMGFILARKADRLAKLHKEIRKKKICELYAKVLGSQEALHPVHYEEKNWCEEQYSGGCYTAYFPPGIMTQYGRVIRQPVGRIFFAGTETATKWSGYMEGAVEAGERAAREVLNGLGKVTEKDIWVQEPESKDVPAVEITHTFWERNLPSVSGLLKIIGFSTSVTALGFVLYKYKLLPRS

Staphylococcus aureus [11] = experiment: Potency index, ratio of radezolid MIC to compound MIC for Staphylococcus aureus ATCC 29213; assay type: functional
Staphylococcus aureus [12] = experiment: Potency index, ratio of radezolid MIC to compound MIC for methicillin-sensitive Staphylococcus aureus; assay type: functional
Enterococcus faecalis [13] = experiment: Potency index, ratio of radezolid MIC to compound MIC for linezolid-resistant Enterococcus faecalis; assay type: functional
Enterococcus faecium [14] = experiment: Potency index, ratio of radezolid MIC to compound MIC for vancomycin-resistant Enterococcus faecium; assay type: functional

Question: How did the MIC (Staphylococcus aureus [1]) turn out when `CC(=O)NC[C@H]1CN(c2ccc(-c3ccc(/C=C4\SC(=S)N(CC(=O)O)C4=O)cc3)c(F)c2)C(=O)O1` was run?
Answer: The MIC was 1 µg/mL (≈ 1.89 µM).

Question: And the MIC (Staphylococcus aureus [2])?
Answer: The MIC was 1 µg/mL (≈ 1.89 µM).

Question: What about the MIC (Staphylococcus aureus [3]) of the same compound?
Answer: The MIC was 1 µg/mL (≈ 1.89 µM).

Question: What about the MIC (Enterococcus faecalis [4]) of the same compound?
Answer: Its MIC is 1 µg/mL (≈ 1.89 µM).

Question: And the MIC (Enterococcus faecium [5])?
Answer: The MIC was 1 µg/mL (≈ 1.89 µM).

Question: With `CC(=O)NC[C@H]1CN(c2ccc(-c3ccc(/C=C4\SC(=S)N(C(C)C(=O)O)C4=O)cc3)c(F)c2)C(=O)O1` (stereo partly specified) as the compound, how does the MIC (Staphylococcus aureus [1]) read?
Answer: Its MIC is 1 µg/mL (≈ 1.84 µM).

Question: What about the MIC (Staphylococcus aureus [2]) of the same compound?
Answer: The MIC was 1 µg/mL (≈ 1.84 µM).

Question: What about the MIC (Staphylococcus aureus [3]) of the same compound?
Answer: The MIC was 1 µg/mL (≈ 1.84 µM).

Question: What about the MIC (Enterococcus faecalis [4]) of the same compound?
Answer: The MIC was 1 µg/mL (≈ 1.84 µM).

Question: And the MIC (Enterococcus faecium [5])?
Answer: The MIC was 1 µg/mL (≈ 1.84 µM).

Question: What does the source list for `CC(=O)NC[C@H]1CN(c2ccc(-c3ccc(/C=C4\SC(=S)N(CCCN5CCCCC5)C4=O)cc3)c(F)c2)C(=O)O1`?
Answer: MIC (Staphylococcus aureus [1]): 1 µg/mL (≈ 1.68 µM); MIC (Staphylococcus aureus [2]): 1 µg/mL (≈ 1.68 µM); MIC (Staphylococcus aureus [3]): 1 µg/mL (≈ 1.68 µM); MIC (Enterococcus faecalis [4]): 1 µg/mL (≈ 1.68 µM); MIC (Enterococcus faecium [5]): 1 µg/mL (≈ 1.68 µM)

Question: `CCN(CC)CCCN1C(=O)/C(=C/c2ccc(-c3ccc(N4C[C@H](CNC(C)=O)OC4=O)cc3F)cc2)NC1=S` was tested. Which MIC (Staphylococcus aureus [1]) did it give?
Answer: Its MIC is 0.125 µg/mL (≈ 0.22 µM).

Question: What about the MIC (Staphylococcus aureus [2]) of the same compound?
Answer: Its MIC is 0.125 µg/mL (≈ 0.22 µM).

Question: And the MIC (Staphylococcus aureus [6])?
Answer: Its MIC is 0.125 to 0.5 µg/mL (≈ 0.22 to 0.881 µM).

Question: And the MIC (Staphylococcus aureus [3])?
Answer: The MIC was 0.125 µg/mL (≈ 0.22 µM).

Question: What about the MIC (Enterococcus faecalis [4]) of the same compound?
Answer: Its MIC is 0.125 µg/mL (≈ 0.22 µM).

Question: And the MIC (Enterococcus faecium [5])?
Answer: The MIC was 0.125 µg/mL (≈ 0.22 µM).

Question: And the MIC (Staphylococcus aureus [7])?
Answer: The MIC was 0.125 to 0.25 µg/mL (≈ 0.22 to 0.44 µM).

Question: And the MIC (Enterococcus faecalis [8])?
Answer: The MIC was 0.125 to 0.25 µg/mL (≈ 0.22 to 0.44 µM).

Question: What about the MIC (Enterococcus faecium [9]) of the same compound?
Answer: The MIC was 0.25 to 0.5 µg/mL (≈ 0.44 to 0.881 µM).

Question: What about the Ratio (Enterococcus faecalis [10]) of the same compound?
Answer: Its Ratio is 64.

Question: What about the pIC50 (HepG2) of the same compound?
Answer: Its pIC50 is 4.04.

Question: What about the inhibition at 1 h, 30 µM (MAO-A) of the same compound?
Answer: Its inhibition at 1 h, 30 µM is 98%.

Question: For `CCOC(=O)CN1C(=O)/C(=C/c2ccc(-c3ccc(N4C[C@H](CNC(C)=O)OC4=O)cc3F)cc2)SC1=S`, which MIC (Staphylococcus aureus [1]) is on record?
Answer: Its MIC is 1 µg/mL (≈ 1.79 µM).

Question: What about the MIC (Staphylococcus aureus [2]) of the same compound?
Answer: Its MIC is 1 µg/mL (≈ 1.79 µM).

Question: What about the MIC (Staphylococcus aureus [3]) of the same compound?
Answer: Its MIC is 1 µg/mL (≈ 1.79 µM).

Question: And the MIC (Enterococcus faecalis [4])?
Answer: The MIC was 1 µg/mL (≈ 1.79 µM).

Question: And the MIC (Enterococcus faecium [5])?
Answer: Its MIC is 1 µg/mL (≈ 1.79 µM).

Question: What does the source list for `CC(=O)NC[C@H]1CN(c2ccc(-c3ccc(/C=C4\NC(=S)N(CCCN5CCOCC5)C4=O)cc3)c(F)c2)C(=O)O1`?
Answer: MIC (Staphylococcus aureus [1]): 2 µg/mL (≈ 3.44 µM); MIC (Staphylococcus aureus [2]): 2 µg/mL (≈ 3.44 µM); MIC (Staphylococcus aureus [3]): 2 µg/mL (≈ 3.44 µM); MIC (Enterococcus faecalis [4]): 2 µg/mL (≈ 3.44 µM); MIC (Enterococcus faecium [5]): 2 µg/mL (≈ 3.44 µM)

Question: What does the source list for `CC(=O)NC[C@H]1CN(c2ccc(-c3ccc(/C=C4\NC(=S)N(CCCN5CCCCC5)C4=O)cc3)c(F)c2)C(=O)O1`?
Answer: MIC (Staphylococcus aureus [1]): 1 µg/mL (≈ 1.73 µM); MIC (Staphylococcus aureus [2]): 1 µg/mL (≈ 1.73 µM); MIC (Staphylococcus aureus [3]): 1 µg/mL (≈ 1.73 µM); MIC (Enterococcus faecalis [4]): 1 µg/mL (≈ 1.73 µM); MIC (Enterococcus faecium [5]): 1 µg/mL (≈ 1.73 µM)

Question: How did the MIC (Staphylococcus aureus [1]) turn out when `CC(=O)NC[C@H]1CN(c2ccc(-c3ccc(/C=C4\SC(=S)N(C)C4=O)cc3)c(F)c2)C(=O)O1` was run?
Answer: Its MIC is 0.25 µg/mL (≈ 0.515 µM).

Question: And the MIC (Staphylococcus aureus [2])?
Answer: The MIC was 0.25 µg/mL (≈ 0.515 µM).

Question: And the MIC (Staphylococcus aureus [3])?
Answer: Its MIC is 0.25 µg/mL (≈ 0.515 µM).

Question: And the MIC (Enterococcus faecalis [4])?
Answer: Its MIC is 0.25 µg/mL (≈ 0.515 µM).

Question: What about the MIC (Enterococcus faecium [5]) of the same compound?
Answer: Its MIC is 0.25 µg/mL (≈ 0.515 µM).

Question: With `CC(=O)NC[C@H]1CN(c2ccc(-c3ccc(/C=C4\SC(=S)N(C(C(=O)O)c5ccccc5)C4=O)cc3)c(F)c2)C(=O)O1` (stereo partly specified) as the compound, how does the MIC (Staphylococcus aureus [1]) read?
Answer: Its MIC is 1 µg/mL (≈ 1.65 µM).

Question: And the MIC (Staphylococcus aureus [2])?
Answer: Its MIC is 1 µg/mL (≈ 1.65 µM).

Question: What about the MIC (Staphylococcus aureus [3]) of the same compound?
Answer: Its MIC is 1 µg/mL (≈ 1.65 µM).

Question: And the MIC (Enterococcus faecalis [4])?
Answer: The MIC was 1 µg/mL (≈ 1.65 µM).

Question: And the MIC (Enterococcus faecium [5])?
Answer: Its MIC is 1 µg/mL (≈ 1.65 µM).

Question: How did the MIC (Staphylococcus aureus [1]) turn out when `CC(=O)NC[C@H]1CN(c2ccc(-c3ccc(/C=C4\SC(=S)NC4=O)cc3)c(F)c2)C(=O)O1` was run?
Answer: The MIC was 0.125 µg/mL (≈ 0.265 µM).

Question: And the MIC (Staphylococcus aureus [2])?
Answer: Its MIC is 0.125 µg/mL (≈ 0.265 µM).

Question: What about the MIC (Staphylococcus aureus [3]) of the same compound?
Answer: Its MIC is 0.125 µg/mL (≈ 0.265 µM).

Question: What about the MIC (Enterococcus faecalis [4]) of the same compound?
Answer: Its MIC is 0.125 µg/mL (≈ 0.265 µM).

Question: What about the MIC (Enterococcus faecium [5]) of the same compound?
Answer: The MIC was 0.125 µg/mL (≈ 0.265 µM).

Question: And the MIC (Staphylococcus aureus [7])?
Answer: Its MIC is 1 to 2 µg/mL (≈ 2.12 to 4.24 µM).

Question: What about the MIC (Enterococcus faecalis [8]) of the same compound?
Answer: Its MIC is 1 to 2 µg/mL (≈ 2.12 to 4.24 µM).

Question: What about the MIC (Enterococcus faecium [9]) of the same compound?
Answer: Its MIC is 1 to 2 µg/mL (≈ 2.12 to 4.24 µM).

Question: And the Ratio (Staphylococcus aureus [11])?
Answer: Its Ratio is 4.

Question: What about the Ratio (Staphylococcus aureus [12]) of the same compound?
Answer: The Ratio was 4.

Question: And the Ratio (Enterococcus faecalis [13])?
Answer: The Ratio was 4.

Question: And the Ratio (Enterococcus faecium [14])?
Answer: The Ratio was 4.

Question: What about the pIC50 (HepG2) of the same compound?
Answer: Its pIC50 is 4.19.

Question: And the inhibition at 1 h, 30 µM (MAO-A)?
Answer: Its inhibition at 1 h, 30 µM is 99%.
